In US5340800A, “Peptide medicaments for the treatment of disease” (priority 1992, dated 1994):
Where two headings read alike, the source gives them in different places. No end group written: not given here.

System: polymorphonuclear leukocyte adhesion to TNF activated endothelial cells
Assay type: cell-based, human
Settings: for Average % Change of PMN Adhesion to TNF Activated ECs: average over PMN donors (# donors in parentheses); for Percent Change of Adhesion: donor 140 (second line), lower part of Table 4
Protocol: Leukocyte adherence can be measured using several assays known in the art, and the preferred assay is described by Charo, et al., 1985, Blood, 65:473. Briefly, the assay consists of labelling leukocytes with an appropriate label, incubating them with endothelial cells and determining the number of leukocytes that adhere. Preferably the cells are labelled with a gamma ray emitting isotope and the preferred labels are ^111 Indium-oxide or ^51 chromium.
Leukocytes may be isolated from human donors using standard techniques. This generally consists of isolating blood in a physiologically balanced salt solution containing an appropriate anticoagulant, and separating the leukocytes by an appropriate separation step, preferably on Ficoll-Hypaquegradients. Contaminating erythrocytes can be removed by hypotonic lysis. The resulting leukocytes are suspended in a physiologically buffered solution, pH 7.4. The preferred physiological buffered solution is Hank's balanced salt solution that is calcium and magnesium free.
The isolated leukocytes can then be labelled by incubating them for an appropriate time, generally 15 minutes, with the desired radioisotope at a predetermined concentration. The radiolabelled cells are washed to remove unincorporated label, and then suspended in an appropriate solution to perform the adhesion assay described below.
Endothelial cells can be prepared from a number of sources and by several techniques known in the art. Preferably they are obtained from human umbilical veins using the procedure of Charo et al., above. Generally, endothelial cells are isolated by enzymatic digestion of the umbilical veins using, preferably, collagenase as described by Jaffe, E. A., et al., 1973, J. of Clin. Invest, 52:2745. The cells are grown on an appropriate tissue culture substratum, preferably gelatine-coated surfaces.
The endothelial cells may be grown in a variety of tissue culture media containing appropriate supplements such as an appropriate concentration of fetal calf serum, and other supplements/additives routinely utilized by those skilled in this art that are recognized as being favorable for endothelial cells. The endothelial cells may be passaged with a dilute solution of an appropriate protease, and if desired a metal ion chelator. Preferably a solution consisting of 0.05 to 0.25% trypsin and 0.02% EDTA is used. To ensure that the cells are indeed endothelial cells, they are tested by immunofluorescence for Factor VIII antigen, a known endothelial cell marker.
Leukocyte adherence to endothelial cell monolayers may be determined as follows. Early passage endothelial cells, generally not beyond the fifth passage, are cultured on an appropriate substratum and in a suitable cell culture medium. The culture substratum is preferably pre-coated with an appropriate substance that enhances the adherence of the endothelial cells. Several such substances are known including fibronectin, poly-L-lysine, gelatin and laminin. Fibronectin is preferred. An appropriate culture substratum is a 96 well micro titer plate, and a suitable medium is Medium 199 containing fetal calf serum and other supplements known to be beneficial for the growth and maintenance of endothelial cells that are well known to those skilled in the art. Prior to adding a predetermined number of labelled leukocytes, the endothelial cell monolayer is washed with a physiologically balanced salt solution containing a reduced amount of fetal calf serum, preferably 1%. The preferred solution is RPMI supplemented with 1% fetal calf serum.
The endothelial cell monolayer containing added leukocytes is incubated for a time sufficient to permit maximum adherence of the leukocytes, and preferably this is conducted at 37° C. for 30 minutes in an appropriate cell culture atmosphere. Generally this would consist of growing and incubating the cells for the assay period in 5% CO2, 95% air, and 95% humidity. […]

Sequence | Average % Change of PMN Adhesion to TNF Activated ECs (10^-4 M) | Average % Change of PMN Adhesion to TNF Activated ECs (10^-6 M) | Average % Change of PMN Adhesion to TNF Activated ECs (10^-8 M) [%] | Average % Change of PMN Adhesion to TNF Activated ECs (10^-5 M) | Average % Change of PMN Adhesion to TNF Activated ECs (10^-7 M) | further results
AHKLAENNIQPIFAVT [Peptide 2-16, NH2 --Ala--His--Lys--Leu--Ala--Glu--Asn--Asn--Ile--Gln--Pro--Ile--Phe--Ala--Val--Thr--COOH] | -7% | -1% | -2 |  |  | 
CRIARLEEKVKTLKAQNSELASTANMLREQVAQLKQKVMNHA [WT, NH2 --Cys--Arg--Ile--Ala--Arg--Leu--Glu--Glu--Lys--Val--Lys--Thr--Leu--Lys--Ala--Gln--Asn--Ser--Glu--Leu--Ala--Ser--Thr--Ala--Asn--Met--Leu--Arg--Glu--Gln--Val--Ala--Gln--Leu--Lys--Gln--Lys--Val--Met--Asn--His--Ala--COOH, reference compound] | -54% | +22% | -15 | 0% | +8% | activity on PMN adhesion at 10^-4 M (in words) (10^-4 M): inhibited polymorphonuclear leukocyte adhesion
DAPEGGLDAMMQVA [Peptide 5-14, NH2 --Asp--Ala--Pro--Glu--Gly--Gly--Leu--Asp--Ala--Met--Met--Gln--Val--Ala--COOH] | +9% | +7% | 0 |  |  | 
DGFHFAGDGKLGAI [Peptide 4-14, NH2 --Asp--Gly--Phe--His--Phe--Ala--Gly--Asp--Gly--Lys--Leu--Gly--Ala--Ile--COOH] | -9% | -4% | -6 | +28% | +12% | inhibitory activity in the PMN adhesion assay (in words): little activity
IGWRNVTRLLVFATD [Peptide 4-15, NH2 --Ile--Gly--Trp--Arg--Asn--Val--Thr--Arg--Leu--Leu--Val--Phe--Ala--Thr--Asp--COOH] |  |  |  |  |  | concentration of peak inhibitory activity in the PMN adhesion assay: 10^4 to 10^-5 M; inhibitory activity in the PMN adhesion assay (in words): active; Percent Change of Adhesion (10^-5 M (first column (so in the source))): -53%; Percent Change of Adhesion, Average (10^-5 M, average of donors 140, 195, 363, 515, 140): -5 ± 3%; Percent Change of Adhesion (10^-5 M): 0%; Percent Change of Adhesion, Average (10^-6 M, average of donors 140, 195, 363, 515, 140): -6 ± 2%; Percent Change of Adhesion, Average (1000.0): -17 ± 2%; Percent Change of Adhesion, Average (100000.0): -58 ± 7%
KTVLPFVNTHPDKLRN [Peptide 6-16, NH2 --Lys--Thr--Val--Leu--Pro--Phe--Val--Asn--Thr--His--Pro--Asp--Lys--Leu--Arg--Asn--COOH] | +6% | -11% | -25 |  |  | 
RIARLEEKVKTLKAENSELASTANMLREEVAQLEQEVMNHA [Peptide 2X, NH2 --Arg--Ile--Ala--Arg--Leu--Glu--Glu--Lys--Val--Lys--Thr--Leu--Lys--Ala--Glu--Asn--Ser--Glu--Leu--Ala--Ser--Thr--Ala--Asn--Met--Leu--Arg--Glu--Glu--Val--Ala--Gln--Leu--Glu--Gln--Glu--Val--Met--Asn--His--Ala--COOH, reference compound] | -38% |  | -20 | -1% | -23% | concentration range over which the peptide had activity on PMN adhesion: 10^-4 to 10^-8 M
RIARLKEKVKTLKAKNSELASTANMLREQVAQLKQKVMNHA [JUN-k, NH2 --Arg--Ile--Ala--Arg--Leu--Lys--Glu--Lys--Val--Lys--Thr--Leu--Lys--Ala--Lys--Asn--Ser--Glu--Leu--Ala--Ser--Thr--Ala--Asn--Met--Leu--Arg--Glu--Gln--Val--Ala--Gln--Leu--Lys--Gln--Lys--Val--Met--Asn--His--Ala--COOH, reference compound] | -25% | +3% |  | -15% | -7% | activity on PMN adhesion at 10^-4 M (in words) (10^-4 M): inhibited polymorphonuclear leukocyte adhesion
SSNVVHLIKNAYNKLSS [Peptide 3-17, NH2 --Ser--Ser--Asn--Val--Val--His--Leu--Ile--Lys--Asn--Ala--Tyr--Asn--Lys--Leu--Ser--Ser--COOH] | -13% | +13% | -7 | +43% | -18% | 
SYSMLDDLRNVKKLG [Peptide 1-15, NH2 --Ser--Tyr--Ser--Met--Leu--Asp--Asp--Leu--Arg--Asn--Val--Lys--Lys--Leu--Gly--COOH] | -24% | -9% | -4 |  |  | 
